Measurements reported in paper PMC6394990, “Detailed characterization of the solution kinetics and thermodynamics of biotin, biocytin and HABA binding to avidin and streptavidin” (PLoS ONE, 2019).
Several values for one entry are separate records, joined by “and”; a condition that tells them apart may be missing. Equal entries are not always repeated. Where two headings read alike, the source gives them in different places.

Target: T1, avidin (AV) (Gallus gallus, UniProt P02701)
T1 construct: purchased Calbiochem (La Jolla, CA)
Experiment: Stopped-flow association kinetics of dye-labeled biotin probes binding to avidin (F(t), rF(t); Arrhenius plots/global fitting)
Set-up: ln(k) / dS+ / dG+ / Eon for BFl / b of the line y = m1x+b1: unit not given here
Conditions: for k(average): k (full value)
Procedure: These reactions were carried out in a buffered solution of 10 mM Tris-HCl, 100 mM KCl, 2.5 mM MgCl2 and 1 mM CaCl2 at pH 8 and only AV-BcO reactions included pH 9 and 10. The concentrations, after mixing, were of 20 nM of dye-labeled B7 probe and 260 nM, 520 nM or 1040 nM of AV; and 200 nM, 300 nM, 400 nM or 800 nM of SAV at temperatures of 10, 15, 20 and 25°C. The deglycosylation of AV (for comparative association reactions) was carried out using the provided standard protocol with endoglycosidase H [47], both with and without incubation of a denaturant solution (2% SDS and 1M 2-mercaptoethanol).
The reactions were collected with the SF instrument, described previously. The fluorescence signal was collected through a 520 nm interference filter (Oriel Corp., Stratford, CT) with a detector time constant and SF dead time of 1 μs and 1 ms, respectively. The excitation light was provided by the Coherent Ar^+ ion laser (described above) at 488 nm with […] of incident power on the reaction cuvette. The laser source was followed by the photo-elastic modulator described above with the axis oriented 45^o with respect to the electric vector of the incident light and with the half-wave modulation (50 kHz) set for 488 nm excitation. The demodulation circuitry following the photomultiplier provided a DC(t) and a rectified AC(t) which were converted to digital data by a high-speed digitizer (PCI-5122) from National Instruments (Austin, TX) with 14-bit resolution and 100 MHz bandwidth, through channels 0 and 1. The data acquisition was controlled by LabVIEW (Vr 8) software at a collection rate of 6120 data points/second and stored in spreadsheets. The AC(t) and DC(t) data were baseline corrected before obtaining the signal ratio (Eq 4) as a function of time (ρt).
The constant AGain is the instrumental amplitude gain and was evaluated by solving ρ(t) using the known steady state anisotropy (rss) of the complexes which is equivalent to the r(t) at t = ∞; and H, obtained from the equivalent grating factor (G) for the filters and photo multiplier tubes in the SF. For the probes used in here G was 0.82 and H = (1-G)/(1+G) = 0.099. Knowing Again and H, the AC(t) and DC(t) signals can be solved for r(t) and F(t) (Eqs 4 and 5) and the normalized fluorescence, F¯(t) , and corrected fluorescence anisotropy, rF¯(t), were obtained when F¯(0) and rF¯(0) were scaled to 1 at t = 0.
The F¯(t) (Eq 6) is equivalent to (I||) + 2 (I⊥) and proportional to quantum yield (QYi), molar absorptivity (εi) and to the formation or disappearance of the emitting species Xi(t); and rF¯(t) including the steady state anisotropies (rss) of each fluorescent species (Eq 7).
The possible reaction models were discriminated by the squared residuals of the observed and calculated association traces of both fluorescence and anisotropy fluorescence signals, F¯(t) and rF¯(t) , respectively.

[1] = AV, average over the dye-labeled B7 probes, used for AV-B7

T1 sequence (P02701 25-152): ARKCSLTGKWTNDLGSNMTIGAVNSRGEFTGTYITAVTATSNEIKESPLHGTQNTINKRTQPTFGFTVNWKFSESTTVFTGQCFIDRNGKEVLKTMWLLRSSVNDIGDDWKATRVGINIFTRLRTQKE

O=C(O)CCCC[C@@H]1SC[C@@H]2NC(=O)N[C@@H]21 [B7, d-biotin]
Eaon + (-∆H°) (AV-B): 36.5 ± 1.3 kcal/mol
∆G°ǂ + (-∆G°) (AV-B): 25.4 ± 1.0 kcal/mol
∆S°ǂ + (-∆S°) (AV-B): 41.9 ± 2.0 cal/mol°K
ΔE = Ea^Forward-Ea^Backward (AV-B7, column 3 minus 4): -23.2 ± 2.2 kcal/mol and -23.2 kcal/mol
ΔG° ^ǂ, Forward -ΔG° ^ǂ, Backward (AV-B7, column 3 minus 4): -20.0 ± 4.0 kcal/mol
ΔS° ^ǂ, Forward -ΔS° ^ǂ, Backward (AV-B7, column 3 minus 4): -11.0 ± 2.5 cal/mol°K
fold slower than 10^9 M^-1s^-1 (diffusion limited) (AV, 25°C): 54-714 X
ΔG^ǂ, Forward [1]: 4.7 ± 0.3 kcal/mol and 4.7 kcal/mol
ΔS^ǂ, Forward [1]: 32 cal/°K·mol
ΔS^ǂ, Forward (AV, average over the dye-labeled B7 probes, used for AV-B7, listed as B): 33.0 ± 2.0 cal/°K·mol

O=C(CCCC[C@@H]1SC[C@@H]2NC(=O)N[C@@H]21)NCCNC(=O)c1ccc(-c2c3ccc(=O)cc-3oc3cc(O)ccc23)c(C(=O)O)c1 [BFl, Biotin-4-fluorescein]
kon fold slower than Green's 7 × 10^7 M^-1s^-1 (25°C and pH 8 vs 25°C and pH 5): 3.8 X
fold by which the SPR kon (ref 20) is slower than the kon of the probe (AV): ~ 9 X
kon (AV, 25°C, read-out: kon): ~1.9e+07 M⁻¹ s⁻¹
Ea^Forward (AV, pH 8): 14.6 ± 0.6 kcal/mol
ln(k) (AV, pH8, 10 (283.15 K)): 15.4
k(average) (AV, pH8, 10 (283.15 K)): 4.86E+06
kon (AV, pH8, 10 (283.15 K), k (scaled)): 4.9e+06 M⁻¹ s⁻¹
ln(k) (AV, pH8, 15 (288.15 K)): 15.8
k(average) (AV, pH8, 15 (288.15 K)): 7.60E+06
kon (AV, pH8, 15 (288.15 K), k (scaled)): 7.6e+06 M⁻¹ s⁻¹
ln(k) (AV, pH8, 20 (293.15 K)): 16.2
k(average) (AV, pH8, 20 (293.15 K)): 1.07E+07
kon (AV, pH8, 20 (293.15 K), k (scaled)): 1.07e+07 M⁻¹ s⁻¹
ln(k) (AV, pH8, 25 (298.15 K)): 16.7
k(average) (AV, pH8, 25 (298.15 K)): 1.85E+07
kon (AV, pH8, 25 (298.15 K), k (scaled)): 1.85e+07 M⁻¹ s⁻¹
ΔG^ǂ (AV, pH 8, forward): 4.2 ± 0.5 kcal/mol
ΔS^ǂ (AV, pH 8, forward): 34.9 ± 2.0 cal/°K·mol
slope (Arrhenius linear fit) (AV, ph8): -7342.9
kcal/mol (from Arrhenius slope) (AV, ph8, the values are: Ea forward): 14.6 kcal/mol
Eon for BFl (Enthalpy block, AV): 14.4
kon (pH 8, AV, pH 8, 10°C, read-out: kon): 4.86e+06 ± 600000 M⁻¹ s⁻¹
kon (pH 8, AV, pH 8, 15°C, read-out: kon): 7.6e+06 ± 2e+06 M⁻¹ s⁻¹
kon (pH 8, AV, pH 8, 20°C, read-out: kon): 1.07e+07 ± 1.6e+06 M⁻¹ s⁻¹
kon (pH 8, AV, pH 8, 25°C, read-out: kon): 1.85e+07 ± 2e+06 M⁻¹ s⁻¹
